Assay results as given in patent US20020137929A1, “1 - (3-heterocyclylphenyl) isothiourea, -isourea, -guanidine and -amidine herbicidal agents” (Intellectual Property Department, BASF Aktiengesellschaft, priority 1998, published 2002).

Assays:
ABUTH (Velvetleaf) = assay: Postemergence herbicidal evaluation; assay type: in vivo, Abutilon theophrasti; conditions: postemergence
How it was run: (§1)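 Visual 0-9 injury score (stand, vigor, malformation, size, chlorosis, appearance vs untreated) taken four to five weeks post-spray, averaged across repeat tests. Test plants about two weeks old; foliar spray of acetone/water (1:1) with 0.5% surfactant delivering ~0.0156-0.500 kg active/ha.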

[1] = tested on: IPOHE (Morningglory, Ivyleaf); assay: Postemergence herbicidal evaluation; assay type: in vivo, Ipomoea hederacea; conditions: postemergence
How it was run: as §1

[2] = tested on: TRZAWR (Wheat, Winter, cv Riband); assay: Postemergence herbicidal evaluation; assay type: in vivo, Triticum aestivum; conditions: postemergence
How it was run: as §1

[3] = tested on: CHEAL (Lambsquarters, Common); assay: Preemergence herbicidal evaluation; assay type: in vivo, Chenopodium album; conditions: preemergence, rated 4-5 weeks after treatment, 0-9 scale
How it was run: (§2)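 Scores use a 0–9 visual scale covering stand, vigor, malformation, size and chlorosis relative to controls, rated four to five weeks after treatment. Before emergence, soil-planted seeds were sprayed with compound in aqueous acetone at roughly 0.0156–0.500 kg/ha and held in the greenhouse.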

[4] = tested on: IPOHE (Morningglory, Ivyleaf); assay: Preemergence herbicidal evaluation; assay type: in vivo, Ipomoea hederacea; conditions: preemergence, rated 4-5 weeks after treatment, 0-9 scale
How it was run: as §2

ECHCG (Barnyardgrass) = assay: Preemergence herbicidal evaluation; assay type: in vivo, Echinochloa crus-galli; conditions: preemergence, rated 4-5 weeks after treatment, 0-9 scale
How it was run: as §2

SETVI (Foxtail, Green) = assay: Preemergence herbicidal evaluation; assay type: in vivo, Setaria viridis; conditions: preemergence, rated 4-5 weeks after treatment, 0-9 scale
How it was run: as §2

ORYSAT (Rice, Tebonnet) = assay: Preemergence herbicidal evaluation; assay type: in vivo, Oryza sativa, (L.) Tebonnet; conditions: preemergence, rated 4-5 weeks after treatment, 0-9 scale
How it was run: as §2

[5] = tested on: TRZAWR (Wheat, Winter, cv Riband); assay: Preemergence herbicidal evaluation; assay type: in vivo, Triticum aestivum; conditions: preemergence, rated 4-5 weeks after treatment, 0-9 scale
How it was run: as §2

[6] = tested on: ECHORC (Watergrass (Calif.)); assay: Preemergence weed control under flooded paddy conditions; assay type: in vivo, Echinochloa oryzoides; conditions: rated 3-4 weeks after treatment
How it was run: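 Herbicidal effect is scored visually on a 0-9 scale against an untreated control, three to four weeks after compounds are pipetted into the flood water (1.5 to 3 cm deep) over seeds planted in silt loam at 0.5 cm depth. Rates: about 0.0313 to 0.500 kg/ha.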

MOOVA (Monochoria) = assay: as above; assay type: in vivo, Monochoria vaginalis; conditions: rated 3-4 weeks after treatment
How it was run: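 Silt loam, seeds in top 0.5 cm; flood held 1.5-3 cm; test cpd as acetone/water 50/50 into flood water, ~0.0313-0.500 kg/ha a.i.; greenhouse 3-4 wk; visual 0-9 score vs control.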

[7] = tested on: ECHORC (Watergrass (Calif.)); assay: Postemergence weed control under flooded paddy conditions; assay type: in vivo, Echinochloa oryzoides; conditions: postemergence weeds, rated 3 to 4 weeks after treatment
How it was run: (§3)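 Injury ratings (0–9 scale covering stand, vigor, malformation, size, chlorosis and overall appearance versus control) were made three to four weeks after treatment. Test material, about 0.0313 to 0.500 kg/ha a.i. in 50/50 v/v aqueous/acetone, was added to flood water 1.5 to 3 cm deep over 3 to 5 cm weeds and 1.5 to 2.5 leaf rice.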

CYPIR (Rice Flatsedge) = assay: as above; assay type: in vivo, Cyperus iria; conditions: postemergence weeds, rated 3 to 4 weeks after treatment
How it was run: as §3

Question: What does the source list for `C#CCOC(=O)CC1SC(=Nc2cc(-n3c(=O)cc(C(F)(F)F)n(C)c3=O)c(F)cc2Cl)N(C)C1=O` (centres unmarked) [Compound 90, 2-Propynyl 2-{{2-chloro-5-[3,6-dihydro-3-methyl-2,6-dioxo-4-(trifluoromethyl)-1(2H)-pyrimidinyl]-4-fluorophenyl}imino}-3-methyl-4-oxo-5-thiazolidineacetate]?
Answer: ABUTH herbicidal rating (ABUTH (Velvetleaf); rate 0.0158 kg/ha): 9.0; ABUTH herbicidal rating (ABUTH (Velvetleaf); rate 0.0315 kg/ha): 9.0; ABUTH herbicidal rating (ABUTH (Velvetleaf); rate 0.0630 kg/ha): 9.0; IPOHE herbicidal rating ([1]; rate 0.0158 kg/ha): 9.0; IPOHE herbicidal rating ([1]; rate 0.0315 kg/ha): 9.0; IPOHE herbicidal rating ([1]; rate 0.0630 kg/ha): 9.0; TRZAWR herbicidal rating ([2]; rate 0.0158 kg/ha): 5.5; TRZAWR herbicidal rating ([2]; rate 0.0315 kg/ha): 7.0; TRZAWR herbicidal rating ([2]; rate 0.0630 kg/ha): 7.5; CHEAL rating ([3]; 0.0313 kg/ha): 7.0; CHEAL rating ([3]; 0.0625 kg/ha): 9.0; CHEAL rating ([3]; 0.1250 kg/ha): 9.0; CHEAL rating ([3]; 0.2500 kg/ha): 9.0; IPOHE rating ([4]; 0.0313 kg/ha): 1.0; IPOHE rating ([4]; 0.0625 kg/ha): 4.0; IPOHE rating ([4]; 0.1250 kg/ha): 9.0; IPOHE rating ([4]; 0.2500 kg/ha): 9.0; ECHCG rating (ECHCG (Barnyardgrass); 0.0313 kg/ha): 0.0; ECHCG rating (ECHCG (Barnyardgrass); 0.0625 kg/ha): 0.0; ECHCG rating (ECHCG (Barnyardgrass); 0.1250 kg/ha): 0.0; ECHCG rating (ECHCG (Barnyardgrass); 0.2500 kg/ha): 3.0; SETVI rating (SETVI (Foxtail, Green); 0.0313 kg/ha): 0.0; SETVI rating (SETVI (Foxtail, Green); 0.0625 kg/ha): 3.0; SETVI rating (SETVI (Foxtail, Green); 0.1250 kg/ha): 9.0; SETVI rating (SETVI (Foxtail, Green); 0.2500 kg/ha): 9.0; ORYSAT rating (ORYSAT (Rice, Tebonnet); 0.0313 kg/ha): 0.0; ORYSAT rating (ORYSAT (Rice, Tebonnet); 0.0625 kg/ha): 0.0; ORYSAT rating (ORYSAT (Rice, Tebonnet); 0.1250 kg/ha): 2.0; ORYSAT rating (ORYSAT (Rice, Tebonnet); 0.2500 kg/ha): 9.0; TRZAWR rating ([5]; 0.0313 kg/ha): 0.0; TRZAWR rating ([5]; 0.0625 kg/ha): 0.0; TRZAWR rating ([5]; 0.1250 kg/ha): 2.0; TRZAWR rating ([5]; 0.2500 kg/ha): 7.0; ECHORC herbicidal effect rating ([6]; 0.0313 kg/ha): 0.0; ECHORC herbicidal effect rating ([6]; 0.0625 kg/ha): 0.0; ECHORC herbicidal effect rating ([6]; 0.1250 kg/ha): 0.0; ECHORC herbicidal effect rating ([6]; 0.2500 kg/ha): 3.0; MOOVA herbicidal effect rating (MOOVA (Monochoria); 0.0313 kg/ha): 9.0; MOOVA herbicidal effect rating (MOOVA (Monochoria); 0.0625 kg/ha): 9.0; MOOVA herbicidal effect rating (MOOVA (Monochoria); 0.1250 kg/ha): 9.0; MOOVA herbicidal effect rating (MOOVA (Monochoria); 0.2500 kg/ha): 9.0; Herbicidal rating ECHORC ([7]; Rate 0.0313 kg/ha): 0.0; Herbicidal rating ECHORC ([7]; Rate 0.0625 kg/ha): 0.0; Herbicidal rating ECHORC ([7]; Rate 0.1250 kg/ha): 0.0; Herbicidal rating ECHORC ([7]; Rate 0.2500 kg/ha): 3.0; Herbicidal rating CYPIR (CYPIR (Rice Flatsedge); Rate 0.0313 kg/ha): 0.0; Herbicidal rating CYPIR (CYPIR (Rice Flatsedge); Rate 0.0625 kg/ha): 0.0; Herbicidal rating CYPIR (CYPIR (Rice Flatsedge); Rate 0.1250 kg/ha): 1.0; Herbicidal rating CYPIR (CYPIR (Rice Flatsedge); Rate 0.2500 kg/ha): 3.0

Question: Which ABUTH herbicidal rating (ABUTH (Velvetleaf); rate 0.0158 kg/ha) does the source give for `CN1C(=O)C(CC(=O)Nc2ccccc2)SC1=Nc1cc(-n2c(=O)cc(C(F)(F)F)n(C)c2=O)c(F)cc1Cl` (centres unmarked) [Compound 91, 2-{{2-Chloro-5-[3,6-dihydro-3-methyl-2,6-dioxo-4-(trifluoromethyl)-1(2H)-pyrimidinyl]-4-fluorophenyl}imino}-3-methyl-4-oxo-5-thiazolidineacetanilide] here?
Answer: 7.0

Question: What about the ABUTH herbicidal rating (ABUTH (Velvetleaf); rate 0.0315 kg/ha) of the same molecule?
Answer: 9.0

Question: What about the ABUTH herbicidal rating (ABUTH (Velvetleaf); rate 0.0630 kg/ha) of the same molecule?
Answer: 9.0

Question: And the IPOHE herbicidal rating ([1]; rate 0.0158 kg/ha)?
Answer: 7.0

Question: What about the IPOHE herbicidal rating ([1]; rate 0.0315 kg/ha) of the same molecule?
Answer: 9.0

Question: What about the IPOHE herbicidal rating ([1]; rate 0.0630 kg/ha) of the same molecule?
Answer: 9.0

Question: And the TRZAWR herbicidal rating ([2]; rate 0.0158 kg/ha)?
Answer: 2.5

Question: And the TRZAWR herbicidal rating ([2]; rate 0.0315 kg/ha)?
Answer: 3.0

Question: And the TRZAWR herbicidal rating ([2]; rate 0.0630 kg/ha)?
Answer: 4.0

Question: And the CHEAL rating ([3]; 0.1250 kg/ha)?
Answer: 4.0

Question: And the CHEAL rating ([3]; 0.2500 kg/ha)?
Answer: 9.0

Question: And the IPOHE rating ([4]; 0.1250 kg/ha)?
Answer: 0.0

Question: And the IPOHE rating ([4]; 0.2500 kg/ha)?
Answer: 0.0

Question: And the ECHCG rating (ECHCG (Barnyardgrass); 0.1250 kg/ha)?
Answer: 0.0

Question: And the ECHCG rating (ECHCG (Barnyardgrass); 0.2500 kg/ha)?
Answer: 0.0

Question: What about the SETVI rating (SETVI (Foxtail, Green); 0.1250 kg/ha) of the same molecule?
Answer: 0.0

Question: What about the SETVI rating (SETVI (Foxtail, Green); 0.2500 kg/ha) of the same molecule?
Answer: 0.0

Question: What about the ORYSAT rating (ORYSAT (Rice, Tebonnet); 0.1250 kg/ha) of the same molecule?
Answer: 0.0

Question: And the ORYSAT rating (ORYSAT (Rice, Tebonnet); 0.2500 kg/ha)?
Answer: 0.0

Question: And the TRZAWR rating ([5]; 0.1250 kg/ha)?
Answer: 0.0

Question: What about the TRZAWR rating ([5]; 0.2500 kg/ha) of the same molecule?
Answer: 0.0

Question: And the “ECHORC herbicidal effect rating” value ([6]; 0.0313 kg/ha)?
Answer: 0.0

Question: And the “ECHORC herbicidal effect rating” value ([6]; 0.0625 kg/ha)?
Answer: 0.0

Question: What about the “ECHORC herbicidal effect rating” value ([6]; 0.1250 kg/ha) of the same molecule?
Answer: 2.0

Question: And the “ECHORC herbicidal effect rating” value ([6]; 0.2500 kg/ha)?
Answer: 4.0

Question: And the “MOOVA herbicidal effect rating” value (MOOVA (Monochoria); 0.0313 kg/ha)?
Answer: 9.0

Question: What about the “MOOVA herbicidal effect rating” value (MOOVA (Monochoria); 0.0625 kg/ha) of the same molecule?
Answer: 9.0

Question: And the “MOOVA herbicidal effect rating” value (MOOVA (Monochoria); 0.1250 kg/ha)?
Answer: 9.0

Question: What about the “MOOVA herbicidal effect rating” value (MOOVA (Monochoria); 0.2500 kg/ha) of the same molecule?
Answer: 9.0

Question: What about the “Herbicidal rating ECHORC” value ([7]; Rate 0.0313 kg/ha) of the same molecule?
Answer: 0.0

Question: What about the “Herbicidal rating ECHORC” value ([7]; Rate 0.0625 kg/ha) of the same molecule?
Answer: 0.0

Question: What about the “Herbicidal rating ECHORC” value ([7]; Rate 0.1250 kg/ha) of the same molecule?
Answer: 2.0

Question: What about the “Herbicidal rating ECHORC” value ([7]; Rate 0.2500 kg/ha) of the same molecule?
Answer: 4.0

Question: What about the “Herbicidal rating CYPIR” value (CYPIR (Rice Flatsedge); Rate 0.0313 kg/ha) of the same molecule?
Answer: 0.0

Question: And the “Herbicidal rating CYPIR” value (CYPIR (Rice Flatsedge); Rate 0.0625 kg/ha)?
Answer: 0.0

Question: And the “Herbicidal rating CYPIR” value (CYPIR (Rice Flatsedge); Rate 0.1250 kg/ha)?
Answer: 0.0

Question: What about the “Herbicidal rating CYPIR” value (CYPIR (Rice Flatsedge); Rate 0.2500 kg/ha) of the same molecule?
Answer: 0.0
